Results on 21 compounds are retold here after article PMC5344255, “Design, Synthesis and Biochemical Evaluation of Novel Selective Estrogen Receptor Ligand Conjugates Incorporating an Endoxifen-Combretastatin Hybrid Scaffold” (Biomedicines, 2016).

Assay type in all cases: cell-based
Assay [1] has as its system MCF-7 human breast cancer cells. The assay can be described thus: Lactate dehydrogenase (LDH) cytotoxicity assay in MCF-7. The settings on record: % cell lysis at 10 µM. On the procedure: (§1) In this assay, the release of cytoplasmic lactate dehydrogenase (LDH) is used as a measure of cell lysis. MCF-7 and MDA-MB-231 cells were seeded at a density of 1 × 10^4 cells/well in a 96-well plate and incubated for 24 h. The cells were then dosed with 2 μL volumes of the test compounds, over the concentration range 1 nM–50 μM. Cytotoxicity was determined using the CytoTox 96 nonradioactive cytotoxicity assay (Promega, Madison, WI, USA) following the manufacturer’s protocol.

Assay [2] deals with MDA-MB-231 human breast cancer cells. The assay can be described thus: Lactate dehydrogenase (LDH) cytotoxicity assay in MDA-MB-231. As to conditions: % cell lysis at 10 μM. On the procedure:
as §1

Assay [3] relates to MCF-7 human breast cancer cells. Briefly: MTT assay for antiproliferative effects in MCF-7. The settings on record: for inhibition at 10 µM: MCF7, MCF-7, read-out: growth inhibition. On the procedure:
(§2) The human breast carcinoma cell line, MCF-7, was purchased from the European Collection of Animal Cell Cultures (ECACC). The cells were maintained in MCF-7 complete medium; consisting of Eagle’s Minimum Essential Medium (MEM) supplemented with 10% (v/v) Foetal Bovine Serum (FBS), 2 mM L-glutamine, 100 μg/mL penicillin/streptomycin and 1% (v/v) non-essential amino acids. Cell cultures were maintained at 37 °C under a humidified atmosphere of 5% CO2/95% O2. The human breast carcinoma cell line, MDA, was purchased from the European Collection of Animal Cell Cultures (ECACC). The cells were maintained in MDA complete medium; consisting of Dulbecco’s Modified Eagle’s Medium (D-MEM) supplemented with 10% (v/v) Foetal Bovine Serum (FBS), 2 mM L-glutamine, 100 μg/mL penicillin/streptomycin. Cell cultures were maintained at 37 °C under a humidified atmosphere of 5% CO2/95% O2. The MTT assay was performed according to the reported protocol. The tetrazolium salt, 3-(4,5-dimethylthiazol-2-yl)-2,5-diphenyltetrazolium bromide (MTT) is taken up only by metabolically active cells and cleaved to form a formazan dye by mitochondrial dehydrogenases. Assays where repeated in three experiments performed in triplicate (unless otherwise stated) and reported results represent the mean value ± standard error mean. Graphs of percentage cell viability versus concentration of the subject compound were processed using PRISM [31].
A general note: Tetrazolium assays rely on reduction of a dye to a coloured formazan, in cell work by metabolically active cells.

Assay [4] deals with MDA-MB-231 human breast cancer cells. Briefly: MTT assay for antiproliferative effects in MDA-MB-231. The settings on record: MDA-MB-231, MTT assay. How it is done: as §2, with “Cell cultures were maintained at 37 °C under a humidified atmosphere of 5% CO2/95% O2.” left out, “Assays where repeated in three experiments performed in triplicate (unless otherwise stated) and reported results represent the mean value ± standard error mean.” left out

[5] abbreviates: Homo sapiens, MCF7, MCF-7, MTT assay, mean of at least three experiments in triplicate.
Where [6] appears, read: MCF-7, MTT assay, mean of at least three experiments in triplicate.

Take `CCC(=C(c1ccc(O)cc1)c1ccc(OCCN(C)C(=O)/C(=C/c2ccc(OC)cc2)c2cc(OC)c(OC)c(OC)c2)cc1)c1ccccc1` (mixture of isomers) [Compound 29, (E)-N-(2-{4-[(E/Z)-1-(4-Hydroxyphenyl)-2-phenylbut-1-enyl]phenoxy}-ethyl)-3-(4-methoxyphenyl)-N-methyl-2-(3,4,5-trimethoxyphenyl)acrylamide]: the results for the “% Cell Death at 10 μM” value in assay [1] and in assay [2] were 12% and 2%, respectively. Moreover, the values for the IC50 in assay [3] (setting [5]) and in assay [4] were 87 nM and 30600 nM, respectively.
For `CCC(=C(c1ccc(O)cc1)c1ccc(OCCN(C)C(=O)/C(=C/c2ccc(OC)cc2)c2cc(OC)c(OC)c(OC)c2)cc1)c1ccc(O)cc1` (mixture of isomers) [Compound 30, (E)-N-(2-{4-[(E/Z)-1,2-Bis-(4-hydroxyphenyl)but-1-enyl]phenoxy}ethyl)-3-(4-methoxyphenyl)-N-methyl-2-(3,4,5-trimethoxyphenyl)acrylamide] the same measures were 19%, 7%, 43 nM and 6290 nM.
For `CCC(=C(c1ccc(O)cc1)c1ccc(OCCN(C)C(=O)/C(=C/c2ccc3c(c2)OCO3)c2ccc(OC)cc2)cc1)c1ccccc1` (mixture of isomers) [Compound 33, (E)-3-Benzo[1,3]dioxol-5-yl-N-(2-{4-[(E/Z)-1-(4-hydroxyphenyl)-2-phenylbut-1-enyl]phenoxy}ethyl)-2-(4-methoxyphenyl)-N-methylacrylamide] the same measures were 8%, 0%, 1470 nM and 5230 nM.
Turning to `CCC(=C(c1ccc(O)cc1)c1ccc(OCCN(C)C(=O)/C(=C/c2ccc3c(c2)OCO3)c2ccc(OC)cc2)cc1)c1ccc(O)cc1` (mixture of isomers) [Compound 34, (E)-3-Benzo[1,3]dioxol-5-yl-N-(2-{4-[(E/Z)-1,2-bis-(4-hydroxyphenyl)but-1-enyl]phenoxy}ethyl)-2-(4-methoxyphenyl)-N-methylacrylamide], the “% Cell Death at 10 μM” value in assay [1] is 6%; in assay [2], 16%. The IC50 in assay [3] (setting [5]) amounted to 49 nM; in assay [4], 680 nM.
As for `CCC(=C(c1ccc(O)cc1)c1ccc(OCCN(C)C(=O)/C(=C/c2ccc3ccccc3c2)c2cc(OC)c(OC)c(OC)c2)cc1)c1ccccc1` (mixture of isomers) [Compound 35, (E)-N-(2-{4-[(E/Z)-1-(4-Hydroxyphenyl)-2-phenylbut-1-enyl]phenoxy}ethyl)-N-methyl-3-naphthalen-2-yl-2-(3,4,5-trimethoxyphenyl) acrylamide], the “% Cell Death at 10 μM” value in assay [1] and in assay [2] was 0% throughout. Further, the IC50 in assay [3] (setting [5]) turned out to be 1510 nM; in assay [4], 2160 nM.
Regarding `CCC(=C(c1ccc(O)cc1)c1ccc(OCCN(C)C(=O)/C(=C/c2ccc(C)cc2)c2cc(OC)c(OC)c(OC)c2)cc1)c1ccccc1` (mixture of isomers) [Compound 37, (E)-N-(2-{4-[(E/Z)-1-(4-Hydroxyphenyl)-2-phenylbut-1-enyl]phenoxy}ethyl)-N-methyl-3-p-tolyl-2-(3,4,5-trimethoxyphenyl)acrylamide], the “% Cell Death at 10 μM” value in assay [1] amounted to 2%. Also, the IC50 in assay [3] (setting [5]) came out at 1750 nM; in assay [3] (Homo sapiens, MCF7, MCF-7, MTT assay, values in nM), 3.62 nM.
Regarding `CCC(=C(c1ccc(O)cc1)c1ccc(OCCN(C)C(=O)/C(=C/c2ccc(C)cc2)c2cc(OC)c(OC)c(OC)c2)cc1)c1ccc(O)cc1` (mixture of isomers) [Compound 38, (E)-N-(2-{4-[(E/Z)-1,2-Bis-(4-hydroxyphenyl)but-1-enyl]phenoxy}ethyl)-N-methyl-3-p-tolyl-2-(3,4,5-trimethoxyphenyl)acrylamide], the “% Cell Death at 10 μM” value in assay [1] is reported as 12%. Further, the IC50 in assay [3] (setting [5]) was found to be 372 nM.
For the compound `CCC(=C(c1ccc(O)cc1)c1ccc(OCCN(C)C(=O)/C(=C/c2ccc(SC)cc2)c2cc(OC)c(OC)c(OC)c2)cc1)c1ccccc1` (mixture of isomers) [Compound 39, (E)-N-(2-{4-[(E/Z)-1-(4-Hydroxyphenyl)-2-phenylbut-1-enyl]phenoxy}ethyl)-N-methyl-3-(4-methylsulfanylphenyl)-2-(3,4,5-trimethoxyphenyl) acrylamide], in assay [1], the “% Cell Death at 10 μM” value is recorded as 3%. Moreover, in assay [3] (setting [5]), it took 790 nM to reach half-maximal inhibition (IC50).
In the same order, the values of `CCC(=C(c1ccc(O)cc1)c1ccc(OCCN(C)C(=O)/C(=C/c2ccc(SC)cc2)c2cc(OC)c(OC)c(OC)c2)cc1)c1ccc(O)cc1` (mixture of isomers) [Compound 40, (E)-N-(2-{4-[(E/Z)-1,2-Bis-(4-hydroxyphenyl)but-1-enyl]phenoxy}ethyl)-N-methyl-3-(4-methylsulfanylphenyl)-2-(3,4,5-trimethoxyphenyl)acrylamide] are 2% and 64 nM.
For `CC/C(=C(\c1ccc(O)cc1)c1ccc(OCCN(C)C)cc1)c1ccccc1` [4-Hydroxytamoxifen, reference compound], the “% Cell Death at 10 μM” value in assay [2] was 0%. The compound also displayed a half-maximal inhibitory concentration (IC50) in assay [4] of 18000 nM.
As to `COc1ccc(/C=C(/C(=O)O)c2cc(OC)c(OC)c(OC)c2)cc1O` [Compound 13], in assay [3] (setting [5]), the half-inhibitory concentration (IC50) came to 120 nM. That is a sub-micromolar value.
Turning to `COc1ccc(/C=C(/C(=O)O)c2cc(OC)c(OC)c(OC)c2)cc1` [Compound 14], the values for the IC50 in assay [3] (setting [5]) and in assay [3] (setting [6]) were below 10000 nM and 7800 nM, respectively.
With `COc1ccc(/C=C(/C(=O)O)c2cc(OC)c(OC)c(OC)c2)cc1F` [Compound 15], in assay [3] (setting [5]), the half-inhibitory concentration (IC50) came out at 55100 nM.
Still for that read-out and setting: then `COc1ccc(/C(=C\c2cc(OC)c(OC)c(OC)c2)C(=O)O)cc1` [Compound 23], with above 50000 nM.
With `COc1ccc(/C(=C\c2ccc3c(c2)OCO3)C(=O)O)cc1` [Compound 25], in assay [3] (setting [6]), the IC50 is above 50000 nM.
In assay [3] (setting [5]), `COc1ccc(/C(=C\c2cc(OC)c(OC)c(OC)c2)C(=O)N2CCCC2)cc1` [Compound 48, (E)-2-(4-methoxyphenyl)-1-(pyrrolidin-1-yl)-3-(3,4,5-trimethoxyphenyl)prop-2-en-1-one] showed an IC50 above 50000 nM.
Consider `COc1ccc(/C=C(/C(=O)N2CCCCC2)c2cc(OC)c(OC)c(OC)c2)cc1O` [Compound 49, (E)-3-(3-hydroxy-4-methoxyphenyl)-1-(piperidin-1-yl)-2-(3,4,5-trimethoxyphenyl)prop-2-en-1-one], for which, in assay [3] (setting [5]), the IC50 is above 50000 nM.
In turn, `COc1ccc(/C=C(/C(=O)N2CCCC2)c2cc(OC)c(OC)c(OC)c2)cc1` [Compound 52, (E)-3-(4-Methoxyphenyl)-1-(pyrrolidin-1-yl)-2-(3,4,5-trimethoxyphenyl)prop-2-en-1-one] registered a half-inhibitory concentration (IC50) in assay [3] (setting [5]) above 50000 nM.
In the case of `COc1ccc(/C=C(/C(=O)N2CCCCC2)c2cc(OC)c(OC)c(OC)c2)cc1` [Compound 53, (E)-3-(4-Methoxyphenyl)-1-(piperidin-1-yl)-2-(3,4,5-trimethoxyphenyl)prop-2-en-1-one], in assay [3] (Homo sapiens), the inhibition at 10 µM was determined as 35%.
Consider `COc1ccc(/C=C(/C(=O)N2CCCC2)c2cc(OC)c(OC)c(OC)c2)cc1N` [Compound 54, (E)-3-(3-Amino-4-methoxyphenyl)-1-(pyrrolidin-1-yl)-2-(3,4,5-trimethoxyphenyl)prop-2-en-1-one], for which the IC50 in assay [3] (setting [5]) was above 50000 nM.
For `COc1ccc(/C=C(/C(=O)N2CCCCC2)c2cc(OC)c(OC)c(OC)c2)cc1N` [Compound 55, (E)-3-(3-Amino-4-methoxyphenyl)-1-(piperidin-1-yl)-2-(3,4,5-trimethoxyphenyl)prop-2-en-1-one], the inhibition at 10 µM in assay [3] (Homo sapiens) came out at 34%.

What is called IC50 is the concentration needed to halve the response being measured. A high value points to weaker potency in that assay. For orientation: inhibition means the share of the control response that was lost under treatment.
